Results from ChEMBL document CHEMBL1156330, “Discovery of a spiroindane based compound as a potent, selective, orally bioavailable melanocortin subtype-4 receptor agonist” (Bioorg Med Chem Lett, 2010).
pEC50, pIC50: −log10 of the molar value. Values belong to the compound of their own block, whether it stands above or below them.

Experiments:
[1] = molecular target: T1, Melanocyte-stimulating hormone receptor (Homo sapiens, UniProt Q01726); assay: Agonist activity at human MC1R expressed in CHO cells assessed as stimulation of intracellular cAMP accumulation at 10 uM relative to alpha-MSH; assay type: functional, cell-based
Target sequence in this assay (Q01726 whole entry, looked up): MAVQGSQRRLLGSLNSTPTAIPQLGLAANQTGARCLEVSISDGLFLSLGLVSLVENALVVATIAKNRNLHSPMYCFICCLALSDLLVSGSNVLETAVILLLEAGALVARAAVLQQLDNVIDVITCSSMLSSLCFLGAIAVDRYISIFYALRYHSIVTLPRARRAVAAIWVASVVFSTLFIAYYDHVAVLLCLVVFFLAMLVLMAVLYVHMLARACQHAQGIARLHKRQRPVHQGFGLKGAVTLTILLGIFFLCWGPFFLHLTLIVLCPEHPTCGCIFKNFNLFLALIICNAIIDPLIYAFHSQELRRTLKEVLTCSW

[2] = molecular target: T1, Melanocyte-stimulating hormone receptor; assay: Displacement of [125I]NDP-alpha-MSH from human MC1R expressed in CHO cells; assay type: cell-based
Target sequence in this assay (Q01726 whole entry): as the sequence (Q01726 whole entry, looked up) above

[3] = molecular target: T2, Melanocortin receptor 3 (Homo sapiens, UniProt P41968); assay: Displacement of [125I]NDP-alpha-MSH from human MC3R expressed in CHO cells; assay type: cell-based
T2 sequence (P41968 whole entry): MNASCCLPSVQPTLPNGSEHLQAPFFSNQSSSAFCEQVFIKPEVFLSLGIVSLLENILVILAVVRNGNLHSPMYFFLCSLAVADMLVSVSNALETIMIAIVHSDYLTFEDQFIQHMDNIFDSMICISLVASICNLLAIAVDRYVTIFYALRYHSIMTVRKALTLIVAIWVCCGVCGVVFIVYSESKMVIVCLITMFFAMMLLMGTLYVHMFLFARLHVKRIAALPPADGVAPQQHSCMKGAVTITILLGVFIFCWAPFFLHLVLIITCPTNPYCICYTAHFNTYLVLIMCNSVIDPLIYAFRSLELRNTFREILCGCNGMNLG

[4] = molecular target: T3, Melanocortin receptor 5 (Homo sapiens, UniProt P33032); assay: Displacement of [125I]NDP-alpha-MSH from human MC5R expressed in CHO cells; assay type: cell-based
T3 sequence (P33032 whole entry): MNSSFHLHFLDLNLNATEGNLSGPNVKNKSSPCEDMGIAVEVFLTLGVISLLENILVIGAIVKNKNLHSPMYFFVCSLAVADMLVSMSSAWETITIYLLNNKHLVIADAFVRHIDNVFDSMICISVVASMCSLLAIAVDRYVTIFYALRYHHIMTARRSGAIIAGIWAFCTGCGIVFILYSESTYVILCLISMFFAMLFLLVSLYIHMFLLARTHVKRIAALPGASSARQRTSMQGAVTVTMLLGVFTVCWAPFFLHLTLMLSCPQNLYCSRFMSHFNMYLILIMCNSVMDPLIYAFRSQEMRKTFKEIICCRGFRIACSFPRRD

[5] = molecular target: T2, Melanocortin receptor 3; assay: Agonist activity at human MC3R expressed in CHO cells assessed as stimulation of intracellular cAMP accumulation; assay type: functional, cell-based
[6] = molecular target: T2, Melanocortin receptor 3; assay: Agonist activity at human MC3R expressed in CHO cells assessed as stimulation of intracellular cAMP accumulation at 10 uM relative to alpha-MSH; assay type: functional, cell-based
[7] = molecular target: T3, Melanocortin receptor 5; assay: Agonist activity at human MC5R expressed in CHO cells assessed as stimulation of intracellular cAMP accumulation at 10 uM relative to alpha-MSH; assay type: functional, cell-based
[8] = molecular target: Melanocortin receptor 3 (Rattus norvegicus, UniProt P32244); assay: Agonist activity at rat MC3R expressed in CHO cells assessed as stimulation of intracellular cAMP accumulation; assay type: functional, cell-based
Sequence of Melanocortin receptor 3 (Rattus norvegicus, UniProt P32244) (P32244 whole entry): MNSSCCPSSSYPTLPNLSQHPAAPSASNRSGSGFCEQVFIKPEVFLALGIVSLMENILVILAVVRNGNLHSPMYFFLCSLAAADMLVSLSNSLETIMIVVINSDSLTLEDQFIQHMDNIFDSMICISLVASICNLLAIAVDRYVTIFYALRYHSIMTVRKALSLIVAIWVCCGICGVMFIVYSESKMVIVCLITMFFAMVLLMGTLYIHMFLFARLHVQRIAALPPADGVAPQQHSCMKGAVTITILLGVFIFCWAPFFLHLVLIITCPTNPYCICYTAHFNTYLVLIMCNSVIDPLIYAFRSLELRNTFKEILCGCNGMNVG

[9] = molecular target: Melanocortin receptor 4 (Rattus norvegicus, UniProt P70596); assay: Agonist activity at rat MC4R expressed in CHO cells assessed as stimulation of intracellular cAMP accumulation; assay type: functional, cell-based
Sequence of Melanocortin receptor 4 (Rattus norvegicus, UniProt P70596) (P70596 whole entry): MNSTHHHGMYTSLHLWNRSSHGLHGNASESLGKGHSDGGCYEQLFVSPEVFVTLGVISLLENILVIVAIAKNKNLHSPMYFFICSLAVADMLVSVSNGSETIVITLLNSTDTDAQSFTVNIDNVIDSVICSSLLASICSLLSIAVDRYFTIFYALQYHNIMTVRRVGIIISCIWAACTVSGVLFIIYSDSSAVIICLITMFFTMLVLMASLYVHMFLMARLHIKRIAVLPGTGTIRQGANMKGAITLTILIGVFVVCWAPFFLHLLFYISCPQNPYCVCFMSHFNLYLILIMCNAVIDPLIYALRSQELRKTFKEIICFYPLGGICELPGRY

[10] = molecular target: Melanocortin receptor 4 (Mus musculus, UniProt P56450); assay: Agonist activity at mouse MC4R expressed in CHO cells assessed as stimulation of intracellular cAMP accumulation; assay type: functional, cell-based
Sequence of Melanocortin receptor 4 (Mus musculus, UniProt P56450) (P56450 whole entry): as the sequence (P70596 whole entry) above, with H21Y, S36P, T199S, A239T, P329S, G330S counted along it

[11] = molecular target: Melanocortin receptor 3 (Rattus norvegicus) (UniProt P32244); assay: Agonist activity at rat MC3R expressed in CHO cells assessed as stimulation of intracellular cAMP accumulation at 10 uM relative to alpha-MSH; assay type: functional, cell-based
Sequence of Melanocortin receptor 3 (Rattus norvegicus) (P32244 whole entry): as the sequence (P32244 whole entry) above

[12] = molecular target: Melanocortin receptor 4 (Rattus norvegicus) (UniProt P70596); assay: Agonist activity at rat MC4R expressed in CHO cells assessed as stimulation of intracellular cAMP accumulation at 10 uM relative to alpha-MSH; assay type: functional, cell-based
Sequence of Melanocortin receptor 4 (Rattus norvegicus) (P70596 whole entry): as the sequence (P70596 whole entry) above

[13] = molecular target: Melanocortin receptor 4 (Mus musculus) (UniProt P56450); assay: Agonist activity at mouse MC4R expressed in CHO cells assessed as stimulation of intracellular cAMP accumulation at 10 uM relative to alpha-MSH; assay type: functional, cell-based
Sequence of Melanocortin receptor 4 (Mus musculus) (P56450 whole entry): as the sequence (P70596 whole entry) above, with H21Y, S36P, T199S, A239T, P329S, G330S counted along it

[14] = Bioavailability in Sprague-Dawley rat at 1 mg/kg, iv and 4 mg/kg, po; assay type: ADME, organism-based; settings: in vivo
[15] = Clearance in Sprague-Dawley rat at 1 mg/kg, iv and 4 mg/kg, po; assay type: ADME, organism-based; settings: in vivo
[16] = Volume of distribution at steady state in Sprague-Dawley rat at 1 mg/kg, iv and 4 mg/kg, po; assay type: ADME, organism-based; settings: in vivo, read-out: Vdss
[17] = Half life in Sprague-Dawley rat at 1 mg/kg, iv and 4 mg/kg, po; assay type: ADME, organism-based; settings: in vivo
[18] = molecular target: T4, Melanocortin receptor 4 (Homo sapiens, UniProt P32245); assay: Displacement of [125I]NDP-alpha-MSH from human MC4R expressed in CHO cells; assay type: cell-based
T4 sequence (P32245 whole entry): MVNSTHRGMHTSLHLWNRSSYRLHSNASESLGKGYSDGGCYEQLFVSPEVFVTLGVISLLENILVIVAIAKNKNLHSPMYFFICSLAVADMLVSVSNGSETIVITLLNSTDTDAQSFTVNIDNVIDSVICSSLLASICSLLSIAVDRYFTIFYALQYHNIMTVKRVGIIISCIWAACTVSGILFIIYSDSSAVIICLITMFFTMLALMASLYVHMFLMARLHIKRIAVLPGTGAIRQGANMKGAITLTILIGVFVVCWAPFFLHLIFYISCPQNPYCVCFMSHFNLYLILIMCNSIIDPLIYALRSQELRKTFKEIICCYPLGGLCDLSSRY

[19] = molecular target: T4, Melanocortin receptor 4; assay: Agonist activity at human MC4R expressed in CHO cells assessed as stimulation of intracellular cAMP accumulation; assay type: functional, cell-based
[20] = molecular target: T1, Melanocyte-stimulating hormone receptor; assay: Agonist activity at human MC1R expressed in CHO cells assessed as stimulation of intracellular cAMP accumulation; assay type: functional, cell-based
Target sequence in this assay (Q01726 whole entry): as the sequence (Q01726 whole entry, looked up) above

[21] = molecular target: T4, Melanocortin receptor 4; assay: Agonist activity at human MC4R expressed in CHO cells assessed as stimulation of intracellular cAMP accumulation at 10 uM relative to alpha-MSH; assay type: functional, cell-based
[22] = Bioavailability in Beagle dog at 0.5 mg/kg, iv and 1.0 mg/kg, po; assay type: ADME, organism-based, Canis lupus familiaris; settings: in vivo
[23] = Clearance in Beagle dog at 0.5 mg/kg, iv and 1.0 mg/kg, po; assay type: ADME, organism-based, Canis lupus familiaris; settings: in vivo
[24] = Volume of distribution at steady state in Beagle dog at 0.5 mg/kg, iv and 1.0 mg/kg, po; assay type: ADME, organism-based, Canis lupus familiaris; settings: in vivo, read-out: Vdss
[25] = Half life in Beagle dog at 0.5 mg/kg, iv and 1.0 mg/kg, po; assay type: ADME, organism-based, Canis lupus familiaris; settings: in vivo
[26] = Bioavailability in rhesus monkey at 0.5 mg/kg, iv and 2 mg/kg, po; assay type: ADME, organism-based, Macaca mulatta; settings: in vivo
[27] = Clearance in rhesus monkey at 0.5 mg/kg, iv and 2 mg/kg, po; assay type: ADME, organism-based, Macaca mulatta; settings: in vivo
[28] = Volume of distribution at steady state in rhesus monkey at 0.5 mg/kg, iv and 2 mg/kg, po; assay type: ADME, organism-based, Macaca mulatta; settings: in vivo, read-out: Vdss
[29] = Half life in rhesus monkey at 0.5 mg/kg, iv and 2 mg/kg, po; assay type: ADME, organism-based, Macaca mulatta; settings: in vivo
[30] = tested on: Rattus norvegicus; assay: Erectogenic activity in rat assessed as spontaneous erections at 0.001 mg/kg, iv for 30 mins; assay type: functional
[31] = tested on: Rattus norvegicus; assay: Erectogenic activity in rat assessed as spontaneous erections at 0.01 mg/kg, iv for 30 mins; assay type: functional
[32] = tested on: Rattus norvegicus; assay: Erectogenic activity in rat assessed as spontaneous erections at 0.1 mg/kg, iv for 30 mins; assay type: functional
[33] = tested on: Rattus norvegicus; assay: Erectogenic activity in rat assessed as spontaneous erections at 1 mg/kg, iv for 30 mins; assay type: functional
[34] = tested on: Rattus norvegicus; assay: Erectogenic activity in rat assessed as spontaneous erections at 3 mg/kg, iv for 30 mins; assay type: functional
[35] = tested on: Rattus norvegicus; assay: Erectogenic activity in rat assessed as spontaneous erections at 1 ug/kg, iv for 30 mins; assay type: functional
[36] = tested on: Rattus norvegicus; assay: Erectogenic activity in iv dosed rat assessed as spontaneous erections measured for 30 mins; assay type: functional, organism-based
[37] = tested on: Rattus norvegicus; assay: Antiobesity activity in po dosed DIO rat assessed as decrease in food intake after 14 days
[38] = tested on: Rattus norvegicus; assay: Antiobesity activity in po dosed DIO rat assessed as decrease in body weight after 14 days

- Emax [1]: 18%
- pIC50 [2]: 5.71
- pIC50 [3]: 6.05
- pIC50 [4]: 7.08
- pEC50 [5]: 6.45
- Activity [6]: 71%
- Activity [7]: 9%
- pEC50 [8]: 6.00
- pEC50 [9]: 8.70
- pEC50 [10]: 7.66
- Activity [11]: 97%
- Activity [12]: 126%
- Activity [13]: 197%
- bioavailability [14]: 33%
- clearance [15]: 12 mL/min/kg
- Vd [16]: 5.1 L/kg
- half-life [17]: 270 min
- pIC50 [18]: 7.89
- pEC50 [19]: 8.31
- pEC50 [20]: 5.99
- Emax [21]: 105%
- bioavailability [22]: 71%
- clearance [23]: 3.5 mL/min/kg
- Vd [24]: 3.5 L/kg
- half-life [25]: 672 min
- bioavailability [26]: 53%
- clearance [27]: 9.6 mL/min/kg
- Vd [28]: 3.5 L/kg
- half-life [29]: 234 min
Structure (SMILES): CC(=O)NC(C)(C)[C@@H]1CC2(CCN(C(=O)[C@@H]3CN(C(C)(C)C)C[C@H]3c3ccc(F)cc3F)CC2)c2cc(Cl)c(C)cc21
- Activity [30]: 75%
- Activity [31]: 92%
- Activity [32]: 100%
- Activity [33]: 88%
- Activity [34]: 75%
- Activity [35]: 83%
- Activity [36]: Dose-dependent effect
- Activity [37]: Dose-dependent effect
- Activity [38]: Dose-dependent effect

- Emax [1]: 39%
- pIC50 [18]: 8.37
- pEC50 [19]: 8.49
- pEC50 [20]: 6.64
- Emax [21]: 97%
Structure (SMILES): CC(=O)NC(C)(C)[C@H]1CC2(CCN(C(=O)[C@@H]3CN(C(C)(C)C)C[C@H]3c3ccc(F)cc3F)CC2)c2cc(Cl)c(C)cc21

- Emax [1]: 41%
- pIC50 [18]: 7.40
- pEC50 [19]: 7.43
- pEC50 [20]: 6.21
- Emax [21]: 111%
Structure (SMILES): CC(=O)NC(C)(C)[C@H]1CC2(CCN(C(=O)[C@H]3CN(C(C)(C)C)C[C@@H]3c3ccc(F)cc3F)CC2)c2cc(Cl)c(C)cc21

- Emax [1]: 15%
- pIC50 [18]: 7.05
- pEC50 [19]: 7.03
- Emax [21]: 107%
Structure (SMILES): CC(=O)NC(C)(C)[C@@H]1CC2(CCN(C(=O)[C@H]3CN(C(C)(C)C)C[C@@H]3c3ccc(F)cc3F)CC2)c2cc(Cl)c(C)cc21
